Measurements: patent EP1488698A1, “Compositions for descreasing intracellular inositol trisphosphate concentration and uses thereof” (priority 1995, dated 1997)
“And” between values parts separate entries of the source, which are not always exact repeats. Identical values can stand only once.

Tests used:
[1] = system: cortical neurons; assay: Calcium ion signalling (fura 2) in intact cortical neurons; assay type: cell-based, chick; settings: neurons loaded to 150 ± 20 pmoles per mg protein; 10 µM glutamate agonist, 30 minutes
Experimental: Metabotropic receptor function was examined in intact neurons by assaying lysosphingolipid modulation of calcium ion signalling. Approximately 1 X 10^6 cortical neurons were cultured on rectangular L-polylysine-coated coverslips and loaded with lysocerebroside or lysosphingomyelin to a level of 150 ± 20 pmoles per mg protein. The neurons were returned to complete Ham's high glucose medium/DMEM (1:1, vol:vol) and infiltrated with 5 µM fura 2/AM (Molecular Probes, Eugene, OR). Fura 2 is a calcium chelator whose fluorescence absorbance shifts to shorter wavelength upon calcium ion binding is measurable in intact cells. A change in intraneuronal calcium ion concentration was monitored as a change in the fluorescence spectrum.
The neurons were exposed to 10 µM glutamate agonist (for example, ibotenate) for 30 minutes at 37°C. The coverslips were then transferred to quartz cuvettes in medium containing 250 µM sulfinpyrazone to prevent fura 2/AM diffusion. Fluorescence ratios were recorded in a Perkin-Elmer LS-5 Fluorescence Spectrometer thermostatted at 37°C at excitation wavelengths of 340 and 380 nm, and emission measurement at 500 nm. Calcium ion signalling in agonist-stimulated neurons was 3.0 ± 0.2 arbitrary units for ibotenate-exposed neurons.

[2] = system: male F344 rats; assay: Behavioral analysis after ICV infusion (quisqualate excitotoxicity model); assay type: in vivo; settings: for effective dose (to prevent or reverse quisqualate effects): pilot testing, the higher doses appeared to be more reliable; for number of convulsions or spasms: pretreatment with Psychosine (125 nmoles) or Lysosphingomyelin (125 nmoles and 150 nmoles) ICV 30 minutes before quisqualate 225 nmoles, n = 6 per group, Fig. 8; for convulsant behavior, compound alone: psychosine at 125 nmoles, lysosphingomyelin at 125 nmoles and 150 nmoles, ICV without quisqualate; for behavioral and histological changes caused by quisqualate: rats pretreated with 125 nmoles of the lysosphingolipid; for BEHAVIORAL RESPONSE: 30 minutes prior to quisqualate
Experimental: (§1) The animals used in this experiment were male F344 rats (Charles River Breeding Laboratories). The animals were housed individually, exposed to a 12-hour light-dark cycle, and allowed free access to food and water. The animals weighed approximately 250 g at the beginning of each experiment and were weighed daily. In addition, the animals were habituated to handling before each experiment.
(§2) Before administering various compounds, the animals were anesthetized with sodium pentobarbital (50 mg/kg, i.p.) and positioned in a sterotaxic instrument. A 26 gauge cannula was inserted into the cerebral ventricle at the following co-ordinates: 1.0 mm posterior to bregma, 1.5 mm lateral to the midline, and 4.0 mm below the dorsal surface of the neocortex. Cannulas were capped and fixed in place with dental cement. One week after cannulation, 10 µl of each of the treatment drugs was infused, ICV (i.e. into the ventricals of the brain), via a micropump at a rate of 10 µl/min. For this procedure, the animals were lightly restrained and unanesthetized. Following administration of the compound, the infusion cannula remained in position for one minute, after which the permanent in situ cannula was capped.
(§3) The compounds administered were obtained from a commercial supplier (Sigma Chemical Co., St. Louis, MO) and dissolved in saline prior to injection. These compounds included quisqualate (injected at doses ranging from 100 nmole/10 µl to 1 µmole/10 µl), lysocerebroside, and lysophingomyelin (which were injected at doses of 25 nmoles/10 µl to 150 nmoles/10 µl).
Pilot studies identified several specific behavioral measures that could be used to indicate excessive activation of the metabotropic receptor (see Table 3). […] The experiments that follow were based on an analysis of these behaviors over a two hour period after administration of the compounds of the invention. Behavioral observation was carried out by two trained observers, who worked independently of one another and who were blind to the experimental groups. […] Frequency and duration means were computed by subtracting pre-infusion means from post-infusion means.
The experiment began one week after ICV cannulation. […] Following the baseline observation period, animals received the first of two ICV infusions (all infusions were of a 10 µl volume that was administered over a 1 minute period). For the first five groups listed above, this consisted of saline (10 µl/minute), for the following 3 groups the infusions were psychosine at 125 nmoles, lysosphingomyelin at 125 nmoles, or lysosphingomyelin at 150 nmoles, respectively. Thirty minutes later, all animals received the second infusion which, for the first five groups listed above, consisted of saline, quisqualate at 225 nmoles, psychosine at 125 nmoles, lysosphingomyelin at 125 nmoles, and lysosphingomyelin at 150 nmoles respectively. […] Following the second infusion animals were returned to their cages, and observed continuously over the subsequent 2 hours.

[3] = system: hippocampal neurons; assay: Histological analysis of brain (cresyl violet) seven days after ICV infusion; assay type: in vivo, rats; settings: pretreatment with psychosine 125 nmoles; quisqualate 225 nmoles ICV; Figs. 7A and 7B
Experimental: as §1, §2, §3
Seven days after the compounds were administered, animals were sacrificed by transcardial perfusion with neutralized, buffered 10% formalin-saline. Their brains were removed, post-fixed overnight in 10% formalin-saline, and sectioned along the coronal plane (into 50 µm thick sections) on a freezing microtome. The sections were stained with cresyl violet to determine the extent of cellular destruction. […]
Given that high concentrations of metabotropic receptors are located in the hippocampus, and that the hippocampus is particularly vulnerable to the effects of a variety of insults including ischemia and hypoxia, this region was examined for evidence of neuronal degeneration due to glutamate excitoxicity.

Row | Compound | agonist-elicited calcium signalling in lysosphingolipid-loaded neurons [1] | effective dose (to prevent or reverse quisqualate effects) ([2]; ICV, rats) | sedation ([2]; Lysosphingomyelin 150 nmoles ICV, rats) | behavioral or neurotoxic effects of the compounds ([2]; doses as high as 125 nmoles per animal, ICV, rats) | number of convulsions or spasms [2] | convulsant behavior, compound alone [2] | duration of teeth chattering, akinesia and mobilization, compared with quisqualate alone ([2]; quisqualate 225 nmoles and lysophingomyelin 150 nmoles ICV, Fig. 9) | behavioral and histological changes caused by quisqualate ([2]; ICV) | BEHAVIORAL RESPONSE ([2]; Psychosine 25 nmoles + Quisqualate 200 moles, ICV) | BEHAVIORAL RESPONSE ([2]; Psychosine 50 nmoles + Quisqualate 200 moles, ICV) | BEHAVIORAL RESPONSE ([2]; Psychosine 100 nmoles + Quisqualate 200 nmoles, ICV) | BEHAVIORAL RESPONSE ([2]; Psychosine 100 nmoles + Quisqualate 250 nmoles, ICV) | BEHAVIORAL RESPONSE ([2]; Psychosine 125 nmoles + Quisqualate 225 nmoles, ICV) | BEHAVIORAL RESPONSE ([2]; Psychosine 150 nmoles + Quisqualate 250 nmoles, ICV) | BEHAVIORAL RESPONSE ([2]; psychosine 125 moles + Quisqualate 200 moles, ICV) | neuronal loss (CA1 pyramidal neurons) caused by quisqualate [3]
1 | CCCCCCCCCCCCC/C=C/[C@@H](O)[C@@H](N)COP(=O)([O-])OCC[N+](C)(C)C [lysosphingomyelin, sphingosyl phosphorylcholine] | no calcium signalling measurably over controls | 125 nmol and 150 nmol | mild sedation | no behavioral or neurotoxic effects were observed | significantly (p<01) attenuated | displayed no convulsant behavior | quisqualate alone spent significantly (p< .01) more time engaged in these behaviors | absent |  |  |  |  |  |  |  | 
2 | CCCCCCCCCCCCC/C=C/[C@@H](O)[C@@H](N)CO[C@@H]1O[C@H](CO)[C@H](O)[C@H](O)[C@H]1O [psychosine] | no calcium signalling measurably over controls | 125 nmol |  |  | significantly (p<01) attenuated | displayed no convulsant behavior |  | absent | Moderate convulsions, teeth chattering, akinesia and hyperactivity | Moderate convulsions, teeth chattering, akinesia and hyperactivity | Almost complete attenuation of Quisqualate response, some teeth chattering post-injection | Moderate convulsions, teeth chattering, akinesia. Quisqualate markedly reduced compared to typical Quisqualate response at this dose. | Complete attenuation of Quisqualate response | Almost complete attenuation of Quisqualate response | Complete attenuation of Quisqualate response | prevents the neuronal loss caused by quisqualate
